Results taken from US20180066004A9, “MITOCHONDRIA-TARGETING PLATINUM(IV) PRODRUG” (priority 2014, published 2018).

Experiments:
[1] = test system: human mesenchymal stem cells (hMSCs)
Description: (§1) PC3 cells (2000 cells/well), A2780/CP70 cells (2000 cells/well), SHSY-5Y (2000 cells/well), and MSC (2000 cells/well) were plated on a 96 well plate and allowed to grow overnight. The media was changed and increasing concentrations of each formulation was added. […] Control values were set at 0% cytotoxicity or 100% cell viability.

[2] = test system: PC3 cells; experiment: XF24 MitoStress assay (OCR), PC3; assay type: cell-based, human; settings: 10 μM with respect to Pt, 12 h
Text: (§2) Mitochondrial Toxicity of T-NP. […] Many TPP-based small molecules were described to disrupt ΔΨm, uncouple OXPHOS, and inhibit mitochondrial respiration. Preclinical mitochondrial toxicology tests can have high positive predictive value. We examined Empty-T-NP, Empty-nontargeted-NPs (NT-NP), and DBCO-TPP induced changes in mitochondrial respiration of prostate cancer (PCa) PC3 cells and cisplatin resistant ovarian cancer A2780/CP70 cells as a measure of mitochondrial toxicity (FIG. 3B). The oxygen consumption rate (OCR) of cells is an important indicator of normal mitochondrial functions. Thus, OCR can be used as a parameter to study TPP-induced mitochondrial toxicity.
(§3) After 12 h, OCR was measured and the effects of metabolic modulators oligomycin, carbonyl cyanide 4-(trifluoromethoxy)phenylhydrazone (FCCP), antimycin A, and rotenone allowed determination of multiple parameters of mitochondrial function (FIG. 3B). […] Several parameters linked to mitochondrial respiration; spare respiratory capacity, coupling efficiency, basal respiration, ETC accelerator response, and ATP coupler response were calculated from the OCR (pMoles/min) vs. Time (min) traces in FIG. 3B.
(§4) Mitochondrial Bioenergetics. We next investigated basal respiration, coupling efficiency, and spare respiratory capacity in response to Platin-M and its NPs using a XF24 MitoStress assay kit (FIG. 5). To determine whether accumulation of Platin-M inside the mitochondrial matrix of PC3 or A2780/CP70 cells inhibited mitochondrial respiration, we measured oxygen consumption rates (OCRs) in these cells as a way of assessing OXPHOS. […] PC3 or A2780/CP70 cells were treated with Platin-M, cisplatin, T-Platin-M-NPs, NT-Platin-M-NPs for 12 h.
(§5) Mito-stress Test Analysis: Different parameters of respiration: basal respiration, coupling efficiency, and spare respiratory capacity were investigated by using Seahorse XF-24 cell Mito Stress Test Kit. Prior to the assay, XF sensor cartridges were hydrated. To each well of an XF utility plate, 1 mL of Seahorse Bioscience calibrant was added and the XF sensor cartridges were placed on top of the utility plate, and kept at 37° C. incubator without CO2 for a minimum of 12 h. PC3, A2780-CP70, SH-SY5Y, and H9C2 (FIG. S18) cells were cultured in XF24-well cell culture microplates (Seahorse Bioscience) at a density of 2.5×10^4 cells/well (except for H9C2, cell density of this cell line: 5×10^4 cells/well) (0.32 cm2) in 200 μL growth medium and then incubated for 24 h at 37° C. in 5% CO2 atmosphere. […] After 12 h, all but 50 μL of the culture medium was removed from each well and the cells were rinsed two times with 500 μL of XF stress test glycolysis optimization medium pre-warmed to 37° C. and finally 450 μL of glucose depleted optimization medium was added to each well and the plate was placed at 37° C. without CO2 for 1 h prior to assay. Different parameters of respiration were calculated by subtracting the average respiration rates before and after the addition of the electron transport inhibitors oligomycin (1.0 μM), trifluorocarbonylcyanide phenylhydrazone or FCCP (1.0 μM), an ionophore that is a mobile ion carrier, and a mixture of antimycin-A (1.0 μM) which is a complex III inhibitor and rotenone (1.0 μM), a mitochondrial inhibitor that prevents the transfer of electrons from the Fe-S center in Complex I to ubiquinone. The parameters calculated included: basal respiration (baseline respiration minus antimycin-A post injection respiration), ATP turnover (baseline respiration minus oligomycin post injection respiration), maximal respiratory capacity (FCCP stimulated respiration minus antimycin-A post injection respiration) and reserve respiratory capacity (FCCP stimulated respiration minus baseline respiration). Test articles on each well had four replicates (data not shown).

[3] = test system: cisplatin resistant A2780/CP70 cells; experiment: XF24 MitoStress assay (OCR), A2780/CP70; assay type: cell-based, human; settings: 10 μM with respect to Pt, 12 h; for ATP-linked respiration on addition of oligomycin / basal OCR levels versus control cells / stimulation of mitochondrial respiration with FCCP after oligomycin: A2780/CP70
Text: as §2, §3, §4, §5

[4] = test system: mtDNA; experiment: mtDNA-Pt adduct quantification; assay type: cell-based, human; settings: treated PC3 cells
Description: (§6) This might be due to the fact that for T-NP system, Platin-M needs to be released from the NPs prior to reduction to cisplatin and subsequent mtDNA interaction and all Platin-M might not have released from the NPs during the course of this experiment, mtDNA isolation was carried out after 12 h which corresponds to only ˜50% of Platin-M will be released from T-NPs (FIG. 4B).
(§7) mtDNA-Pt and nDNA-Pt Adduct Quantification: The mitochondria and nuclei were isolated according to protocol mentioned before. These fractions were further fractionated in order to isolate mitochondrial and genomic DNA, respectively. For mitochondrial DNA (mtDNA), the freshly isolated mitochondria were re-suspended in 35 μL of mitochondrial lysis buffer. To this, 5 μL of the enzyme mix was added. This was incubated at 50° C. in water bath until the solution turned clear (˜1 h). To this, 100 μL of absolute ethanol was added and the resulting solution was incubated for 10 min at −20° C. […] The resulting solution was quantified for the amount and purity of DNA by UV-Vis spectroscopy (260/280 nm) and the amount of Pt by ICP-MS. […] Reprecipitation with 70% ethanol in nanopure H2O was performed until the ratio of the absorbances at 260 and 280 nm was […]. […] The resulting solution was quantified for the amount of DNA by UV-Vis spectroscopy (260/280 nm) and the amount of Pt by ICP-MS.

[5] = Electrochemistry of Platin-M (redox potential); assay type: physicochemical; settings: 1 mM in 20% DMF-PBS, 0.1 M KCl, 25° C.
Text: We recently developed a cycloaddition approach to introduce numerous functionalities on to Pt(IV) with high efficiency by keeping in mind that copper(I) based click chemistry can also cause reduction of Pt(IV). A TPP moiety was introduced on dibenzocyclooctyne (DBCO) derivative to result DBCO-TPP (FIG. 2, FIGS. S1-S4). A strain-promoted alkyne-azide cycloaddition (SPAAC) reaction between an azide-Pt(IV) precursor Platin-Az (Pathak, R. K., et al. Chem Eur J DOI: 10.1002/chem.201402573) recently developed by us and DBCO-TPP resulted Platin-M with high efficiency (FIG. 2). The prodrug Platin-M was characterized using microanalysis and spectroscopic techniques (FIGS. S5-S10). Feasible cellular reduction of Pt(IV) prodrug is required to release active cisplatin.
Electrochemistry of Platin-M: Electrochemical measurements were made at 25° C. on an analytical system model CHI 920c potentiostat from CH Instruments, Inc. (Austin, Tex.). A conventional three-electrode set-up comprising a glassy carbon working electrode, platinum wire auxiliary electrode, and an Ag/AgCl (3M KCl) reference electrode was used for electrochemical measurements. The electrochemical data were uncorrected for junction potentials. KCl was used as a supporting electrolyte. Platin-M (1 mM) solutions were prepared in 20% DMF-phosphate buffered saline (PBS) of pH 6.0 and 7.4 with 0.1 M KCl and voltammograms were recorded at different scan rates (data not shown).

[6] = Platin-M ability to form micelles (nanoprecipitation, DLS); assay type: physicochemical; settings: DMF solution of Platin-M into water
Text: Morphology of T-Platin-M and NT-Platin-M-NPs was investigated using transmission electron microscopy (TEM) (FIG. 4A). […] Percent loading of Platin-M varied between 6 to 27% based on the percent feed with respect to polymer feed (FIG. 4A, Tables S1 and S2). Given the amphiphilic character of Platin-M with two cationic TPP head groups and lipophilic DBCO moieties, we questioned whether the high loading of Platin-M is due to formation of self-micelles.
Determination of Platin-M Ability to Form Micelles: Platin-M was dissolved in DMF to a final concentration of 1.5 mg/mL. This solution was added drop wise slowly into vigorously stirring nanopure water (10 mL) and stirred at room temperature for 3 h. This solution was then filtered and washed through Amicon filters with a MW cutoff of 100 kDa 3 times in order to ensure the removal of all residual organic solvent. Finally, the NPs were resuspended in nanopure water (1 mL) and filtered through a 0.2 μm filter. The resulting suspension was characterized by DLS.

[7] = test system: PCa PC3 cell line; experiment: MTT cytotoxicity assay, PC3; assay type: cell-based, human; settings: free drugs 72 h, NPs media changed after 12 h plus 60 h
Description: (§8) In vitro cytotoxicity of Platin-M, T-Platin-M, and NT-Platin-M was assessed by the 3-(4,5-dimethylthiazol-2-yl)-2,5-diphenyltetrazolium bromide or MTT assay on PCa PC3 cell line, human neuroblastoma SH-SY5Y cell line, and cisplatin resistant A2780/CP70 ovarian cancer cell line (Table 1). The rationale behind the use of androgen independent PC3 cell line was the inherent resistance of these cells to cisplatin therapy due to enhanced repair of Pt-nDNA adducts by the NER, poor targeting, and androgen-independent PCa with reduced normal mtDNA acquire a more progressive phenotype by inducing mutations to nDNA.
as §1

[8] = test system: human neuroblastoma SH-SY5Y cell line; experiment: MTT cytotoxicity assay, SH-SY5Y; assay type: cell-based; settings: free drugs 72 h, NPs media changed after 12 h plus 60 h
Description: as §8, §1

[9] = test system: nDNA; experiment: nDNA-Pt adduct quantification; assay type: cell-based, human; settings: treated PC3 cells, 12 h
Description: as §6, §7

[NH2][Pt]([NH2])([Cl])([Cl])([O]C(=O)CCCCCn1nnc2c1-c1ccccc1CN(C(=O)CCNC(=O)CCCCC[P+](c1ccccc1)(c1ccccc1)c1ccccc1)c1ccccc1-2)[O]C(=O)CCCCC[n+]1n[nH]c2c1-c1ccccc1CN(C(=O)CCNC(=O)CCCCC[P+](c1ccccc1)(c1ccccc1)c1ccccc1)c1ccccc1-2 [Platin-M]
toxicity in hMSCs less than in the resistant cells ([1]; human, 72 h): ~3 times | ATP-linked respiration on addition of oligomycin [2]: less reduction | basal OCR levels versus control cells [2]: less than control cells | stimulation of mitochondrial respiration with FCCP after oligomycin [2]: no enhancement in OCR levels | inhibition of mitochondrial respiration in A2780/CP70 cells compared to PC3 cells [3]: to a greater extent | ATP-linked respiration on addition of oligomycin [3]: less reduction | basal OCR levels versus control cells [3]: less than control cells | stimulation of mitochondrial respiration with FCCP after oligomycin [3]: no enhancement in OCR levels | mtDNA adduct compared to T-Platin-M-NP system ([4]; 12 h): marginally higher | Pt-mtDNA adduct formation ([4]; mtDNA isolated after 12 h): exhibited binding with mtDNA | Redox potential vs. Ag/AgCl ([5]; pH 6.0): −0.369 V | Redox potential vs. NHE ([5]; pH 6.0): −0.269 | Redox potential vs. Ag/AgCl ([5]; pH 7.4): −0.376 V | Redox potential vs. NHE ([5]; pH 7.4): −0.275 | PDI of particles from nanoprecipitation without polymer [6]: 0.799 | Size of particles from nanoprecipitation without polymer [6]: 941.6±589.5 nm | Zeta Potential of particles from nanoprecipitation without polymer [6]: −5.38±1.66 mV

N.N.[Cl][Pt][Cl] [Cisplatin, Cisdiamminedichloridoplatinum(II), reference compound]
IC50 [7]: 13.1 ± 0.1 µM | IC50 [8]: 19 µM | IC50 ([1]; hMSC, MTT, free drugs 72 h, NPs media changed after 12 h plus 60 h): 16.4 ± 0.5 µM | ATP-linked respiration on addition of oligomycin [2]: attenuated | basal OCR levels versus control cells [2]: did not show any changes | stimulation of mitochondrial respiration with FCCP after oligomycin [2]: comparable | ATP-linked respiration on addition of oligomycin [3]: attenuated | basal OCR levels versus control cells [3]: did not show any changes | stimulation of mitochondrial respiration with FCCP after oligomycin [3]: comparable | Pt-nDNA adduct formation [9]: much higher than the level of cisplatin adducts in mtDNA
